Tests used:
[1] = target: Diacylglycerol kinase zeta (Homo sapiens, UniProt Q13574); assay: Biochemical DGK IC50 Assays
Method: (§1) Enzymatic reactions of DGKζ, DGKα and DGKδ were performed using ADP-Glo assay with lipid micelle substrate. […] Full length DGKα (D21-10BG, SignalChem) and full length DGKδ (D23-10G, SignalChem) were purchased. […] The resulted product was resuspended in buffer containing 25 mM HEPES pH 7.0, 0.5 mM EDTA and 160 mM Octyl P-D glucopyranoside by vigorous mixing and ultrasonic (IID, Scientz). Final concentration in reaction. […] The inhibition activities testing for the compound disclosed herein were carried out at room temperature in assay buffer containing 50 mM HEPES, 10 mM MgCl2, 0.01% BSA, 0.1 mM Na3VO4, 0.005% Tween-20 and 0.01 mM CaCl2. […] 3 μL 2× enzyme solution was added to wells. […] After 1 hour reaction, 5 μL ADP-Glo reagent (Promga V9101) was added and incubated for 40 minutes. 10 μL Kinase Detection reagent was added and incubated for 30 minutes. Luminescence was measured on a microplate reader (PHERAstar FSX, BMG labtech). The IC50s are calculated based on inhibition of enzyme activity in the presence of increasing concentrations of compounds.

[2] = target: Diacylglycerol kinase alpha (Homo sapiens, UniProt P23743); assay: Biochemical DGK IC50 Assays
Chain of Diacylglycerol kinase alpha (P23743 whole entry): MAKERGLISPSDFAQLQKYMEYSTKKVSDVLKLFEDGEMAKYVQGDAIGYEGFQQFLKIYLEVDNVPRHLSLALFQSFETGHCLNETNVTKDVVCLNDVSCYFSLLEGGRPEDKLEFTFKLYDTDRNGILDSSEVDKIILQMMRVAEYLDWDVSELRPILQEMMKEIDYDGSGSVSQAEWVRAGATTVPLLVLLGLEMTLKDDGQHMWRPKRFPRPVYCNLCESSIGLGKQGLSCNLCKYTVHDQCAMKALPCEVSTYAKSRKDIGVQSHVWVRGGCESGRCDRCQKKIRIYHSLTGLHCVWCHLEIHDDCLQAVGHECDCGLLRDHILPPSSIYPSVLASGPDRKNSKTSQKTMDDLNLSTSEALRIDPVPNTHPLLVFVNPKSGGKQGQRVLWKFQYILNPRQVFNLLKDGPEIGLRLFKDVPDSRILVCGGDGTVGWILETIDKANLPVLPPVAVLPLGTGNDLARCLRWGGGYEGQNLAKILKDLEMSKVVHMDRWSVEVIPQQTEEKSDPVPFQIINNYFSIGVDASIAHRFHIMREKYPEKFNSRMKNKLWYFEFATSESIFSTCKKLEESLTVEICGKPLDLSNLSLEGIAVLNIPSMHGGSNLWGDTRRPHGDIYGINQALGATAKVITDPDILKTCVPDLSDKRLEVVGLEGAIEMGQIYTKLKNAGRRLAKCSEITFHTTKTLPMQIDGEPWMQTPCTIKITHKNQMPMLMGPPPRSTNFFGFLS
Method: as §1

Chain of Diacylglycerol kinase zeta (Q13574 as listed by the source): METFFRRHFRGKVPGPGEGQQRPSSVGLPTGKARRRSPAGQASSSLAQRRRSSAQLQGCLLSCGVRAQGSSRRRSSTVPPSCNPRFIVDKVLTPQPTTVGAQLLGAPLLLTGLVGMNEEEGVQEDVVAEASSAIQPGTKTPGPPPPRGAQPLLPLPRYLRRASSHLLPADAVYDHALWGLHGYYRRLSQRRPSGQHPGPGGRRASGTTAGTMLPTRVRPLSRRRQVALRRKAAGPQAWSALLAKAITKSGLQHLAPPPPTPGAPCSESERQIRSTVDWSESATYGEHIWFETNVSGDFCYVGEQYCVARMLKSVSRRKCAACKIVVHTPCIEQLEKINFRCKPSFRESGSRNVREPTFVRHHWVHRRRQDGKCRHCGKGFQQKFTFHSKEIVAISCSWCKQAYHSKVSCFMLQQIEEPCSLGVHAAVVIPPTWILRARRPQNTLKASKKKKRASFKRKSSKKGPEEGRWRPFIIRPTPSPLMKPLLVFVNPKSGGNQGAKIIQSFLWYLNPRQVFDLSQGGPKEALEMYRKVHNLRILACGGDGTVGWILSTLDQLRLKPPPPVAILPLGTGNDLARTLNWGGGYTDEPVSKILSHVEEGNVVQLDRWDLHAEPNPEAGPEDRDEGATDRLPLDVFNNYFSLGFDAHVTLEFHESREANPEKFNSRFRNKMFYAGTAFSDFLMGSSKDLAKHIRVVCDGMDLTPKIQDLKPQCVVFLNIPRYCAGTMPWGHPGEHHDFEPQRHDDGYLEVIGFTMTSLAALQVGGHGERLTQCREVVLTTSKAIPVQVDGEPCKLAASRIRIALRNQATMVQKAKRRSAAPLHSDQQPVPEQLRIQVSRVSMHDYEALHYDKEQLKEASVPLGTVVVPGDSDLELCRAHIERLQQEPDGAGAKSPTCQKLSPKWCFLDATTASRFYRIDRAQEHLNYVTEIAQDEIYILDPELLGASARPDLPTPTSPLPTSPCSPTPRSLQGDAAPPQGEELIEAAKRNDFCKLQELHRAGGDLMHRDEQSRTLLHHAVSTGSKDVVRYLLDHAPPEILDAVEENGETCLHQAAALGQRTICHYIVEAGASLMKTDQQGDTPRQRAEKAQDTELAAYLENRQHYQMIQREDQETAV

IC50 [1]	IC50 [2]	SMILES
> 10 µM		CC[C@H]1CN(C(C)c2ccc(N)nc2)[C@H](CC)CN1c1cc(=O)n(C)c2cn(CC#N)nc12 (single isomer, unassigned) [US20250346597, Compound A187b]
0.5 µM	0.079 µM	CC[C@@H]1CN(C2CC(=O)N(C)C3=CN(CC#N)NC32)[C@@H](CC)CN1C(C)c1ccc(OCCOC)cc1 (stereo partly drawn) [US20250346597, Compound A11]

From BindingDB's records for patent US20250346597 (Beone Medicines I, 2025)
